{"source": "paper PMC3109731", "about": "(Journal of clinical psychopharmacology, 2010)", "key": {"[1]": {"tested_on": "pregnant women with major depressive disorder", "experiment": "Depression level on the 17-item Hamilton Rating Scale for Depression", "format": "in vivo, human", "details": "for Mean HRS-D score: fluoxetine 10 to 80 mg daily"}, "[2]": {"details": "cited from earlier work"}, "[3]": {"details": "among the 16 subjects with 2 or more repeated depression scores"}}, "data": [{"molecule": "CNCCC(Oc1ccc(C(F)(F)F)cc1)c1ccccc1", "note": "(stereo not drawn) [FLX, fluoxetine]", "values": [{"measurement": "Mean HRS-D score", "setting": "[1]; 12 weeks postpartum", "value": "7.6 ± 6.5"}, {"measurement": "Mean HRS-D score", "setting": "[1]; 20 weeks of gestation", "value": "7.3 ± 3.3"}, {"measurement": "Mean HRS-D score", "setting": "[1]; 30 weeks of gestation", "value": "8.7 ± 5.6"}, {"measurement": "Mean HRS-D score", "setting": "[1]; 36 weeks of gestation", "value": "7.1 ± 3.2"}, {"measurement": "Subjects with mild to moderate depression levels (HRS-D 12–22)", "setting": "[1]; [3]", "value": 3, "unit": "subjects"}, {"measurement": "Subjects with remitted depression (HRS-D ≤8)", "setting": "[1]; [3]", "value": 13, "unit": "subjects"}, {"measurement": "Mean HRS-D score", "setting": "[1]; during delivery", "value": "8.3 ± 5.9"}, {"measurement": "Expected half-life", "setting": "[2]", "value": "48 to 96", "unit": "h"}, {"measurement": "Time to reach steady-state concentration", "setting": "[2]", "value": "≤ 23", "unit": "days"}]}]}
